In patent US20250243219A1, “MACROCYCLIC COMPOUNDS AND USES THEREOF” (Cypralis Limited, priority 2022, published 2025):

Tests used:
cyclophilin D = cyclophilin D (Homo sapiens (Human), UniProt P30405); assay: Functional peptidyl prolyl isomerase (PPIase) spectrophotometric assay, cyclophilin D; assay type: biochemical; conditions: second value of CypA/D cell; read-out: Ki CypD
How it was run: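 Cuvette-based UV/Vis assay of PPIase-catalysed cis-to-trans isomerisation of a peptide substrate. First-order rate constants fitted to absorbance, background rate subtracted. Ki derived from rate constant versus inhibitor concentration, typically 6-point curves in duplicate.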

SH-SY5Y cells = assay: Thapsigargin treated cell death assay in SH-SY5Y cells; assay type: cell-based, human; conditions: compound at 10 μM; positive = protection from cell death, negative = compound toxicity
How it was run: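 SH-SY5Y neuroblastoma cells given compound (typically 1, 3 and 10 μM, triplicate) 30 min before thapsigargin, with cyclosporin A (3 and 10 μM) as positive control. Cell death read kinetically over 24 h by CellTox Green DNA-binding fluorescence; values are % recovery at 10 μM, usually at 8 h, positive meaning protection.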

[1] = Pharmacokinetics in mice, oral dose; assay type: in vivo, mice (strain FVB/N); conditions: oral 10 mg/kg
Description: (§1) Test compounds were administered to rodents (mice or rats) either orally, subcutaneously or intravenously. To determine blood or plasma concentrations blood samples were taken at different time points and analysed for the concentration of test compound by LC/MS. Brain concentrations were measured by sacrificing animals and LC/MS analysis of brain homogenate. FIG. 2 illustrates graphs for the concentration (ng/ml) Compound (2) in blood, blood plasma and in the brain at 30 minutes to 7 hours after oral treatment.

[2] = Pharmacokinetics in mice, subcutaneous administration; assay type: in vivo, mice (strain FVB/N); conditions: subcutaneous 10 mg/kg; for Tmax / Cmax / half-life: sc
Description: as §1, with “FIG. 3” for “FIG. 2”, “after the same dosage administered sub-cutaneously.” for “after oral treatment.”

[3] = tested on: animal models of acute pancreatitis; conditions: Mukherjee et al., Gut Online, 12 Jun. 2015; cited from earlier work
[4] = FVB/N, mouse, brain, read-out: Tmax Brain
[5] = FVB/N, mouse, plasma, read-out: Cmax Plasma
[6] = FVB/N, mouse, plasma, read-out: T1/2 Plasma (converted)
[7] = FVB/N, mouse, plasma, read-out: Tmax Plasma
[8] = FVB/N, mouse, whole blood, read-out: Cmax Whole blood
[9] = FVB/N, mouse, whole blood, read-out: T1/2 Whole blood (converted)
[10] = FVB/N, mouse, whole blood, read-out: Tmax Whole blood

Chain of cyclophilin D (P30405 30-207, species assumed): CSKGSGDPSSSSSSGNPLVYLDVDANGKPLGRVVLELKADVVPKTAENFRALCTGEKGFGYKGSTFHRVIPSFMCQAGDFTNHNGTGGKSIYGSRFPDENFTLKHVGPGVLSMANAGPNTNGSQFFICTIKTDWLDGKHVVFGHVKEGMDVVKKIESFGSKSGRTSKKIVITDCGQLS

CC(C)[C@@H]1OC(=O)C(C)(C)/C=C/c2ccc3ccc(nc3c2)N(C)NC(=O)[C@@H]2CCCN(N2)C(=O)[C@H](C)NC1=O [Compound (2)]
Ki (cyclophilin D): 17 nM | SYSY [10 μM] % recovery (SH-SY5Y cells): 40.4% | Kp ([1]; FVB/N, mouse, brain and blood): 0.72 | Tmax [1, 4]: 7 h | Cmax [1, 5]: 582 ng/mL | half-life [1, 6]: 3 h | Tmax [1, 7]: 0.5 h | Cmax [1, 8]: 1490 ng/mL | half-life [1, 9]: 5.45 h | Tmax [1, 10]: 0.5 h | AUC0-t Plasma [1]: 3180 ng/mL/h | AUC0-t Whole blood [1]: 12500 ng/mL/h | Blood/plasma [1]: 2.87 Ratio | Cmax Brain [1]: 297 ng/mL | Kp ([2]; FVB/N, mouse, brain and blood): 0.9 | Tmax [2, 4]: 2 h | Cmax [2, 5]: 1640 ng/mL | half-life [2, 6]: 1.77 h | Tmax [2, 7]: 0.5 h | Cmax [2, 8]: 2640 ng/mL | half-life [2, 9]: 3.17 h | Tmax [2, 10]: 0.5 h | AUC0-t Brain [2]: 3370 ng/mL/h | AUC0-t Plasma [2]: 3730 ng/mL/h | AUC0-t Whole blood [2]: 8150 ng/mL/h | Blood/plasma [2]: 2.2 Ratio | Cmax Brain [2]: 563 ng/mL | Protection in animal models of acute pancreatitis [3]: protective
